± gives the expanded uncertainty stated by the source.

One may read the vapor or sublimation pressure as the equilibrium pressure above the liquid or solid. One may read the refractive index as a measure of how strongly the sample bends light.

For data set [1] the following is noted: Liquid, Closed cell (Static) method.
Data set [2] can be described thus: refractive index (Na D-line) (dimensionless). The conditions noted are these: 293.15 K; 101.33 kPa; Liquid; Standard Abbe refractometry.

In the case of `CCO` [ethanol], the “vapor or sublimation pressure” value in data set [1] (383.3 K) was determined as 315.6 ± 1.7 kPa; in data set [1] (398.2 K), 498.3 ± 2.2 kPa; in data set [1] (413.2 K) it was 757 ± 3 kPa. Further, the refractive index in data set [2] was 1.3618 ± 0.0007.
With `CCC(C)=O` [butanone], the “vapor or sublimation pressure” value in data set [1] (383.3 K) is 245.6 ± 1.3 kPa; in data set [1] (398.1 K), 358.5 ± 1.5 kPa; in data set [1] (398.2 K), 358.5 ± 1.5 kPa; in data set [1] (413.2 K), 506.6 ± 1.9 kPa. For the same molecule, the refractive index in data set [2] amounted to 1.3788 ± 0.0007.
Regarding `CO` [methanol], the figures for the “vapor or sublimation pressure” value in data set [1] (383.3 K), in data set [1] (398.1 K) and in data set [1] (413.2 K) were 480.7 ± 2.3 kPa, 733.7 ± 3.1 kPa and 1086 ± 4.1 kPa, respectively. In data set [2], the refractive index is 1.3287 ± 0.0007.
